This is an account of results in patent publication US4366149A, “Antitumor anthracycline glycosides, their preparation, intermediates therefor, and compositions and use thereof” (priority 1980, dated 1982).

SMILES strings stand for the structures. In brackets after ≈: the same amount, converted by molar mass. Like-named read-outs stand apart in the source and are kept apart here.

The test system of one data set is HeLa cells. Nature of the data set: HeLa cells cloning efficiency in vitro. Conditions: for IC50: read-out: ID50 (HeLa cells cloning efficiency); for cytotoxicity on HeLa cells cloning efficiency, in words: in vitro, compared with daunorubicin. It is filed as cell-based. The method, then: Activity on HeLa cells cloning efficiency in vitro. Treatment for 24 hours

A further data set relates to P388 ascitic leukemia. The data set is described as follows: Activity against P388 ascitic leukemia in mice. It is filed as in vivo. Conditions: for activity against P388 leukemia, in words: preliminary test in mice. From the text: Activity against P388 ascitic leukemia. Treatment i.p. on day one after tumour inoculation.
Setting [1] is: Homo sapiens, HeLa, 24 h, read-out: % of controls (HeLa cells cloning efficiency).
Where [2] appears, read: 10 mg/kg i.p. on day one after tumour inoculation.
Where [3] appears, read: 20 mg/kg i.p. on day one after tumour inoculation.
[4] abbreviates: 40 mg/kg i.p. on day one after tumour inoculation.
Where [5] appears, read: 6 mg/kg i.p. on day one after tumour inoculation.
The mark [6] stands for this setting: 9 mg/kg i.p. on day one after tumour inoculation.
Setting [7] is: 13.5 mg/kg i.p. on day one after tumour inoculation.
[8] abbreviates: 2.9 mg/kg i.p. on day one after tumour inoculation.
Setting [9] is: 4.4 mg/kg i.p. on day one after tumour inoculation.
The mark [10] stands for this setting: 6.6 mg/kg i.p. on day one after tumour inoculation.

With `COc1cccc2c1C(=O)c1c(O)c3c(c(O)c1C2=O)C[C@@](O)(C(C)=O)C[C@@H]3O[C@H]1C[C@H](N)[C@@H](NC(=O)C(F)(F)F)[C@H](C)O1` [XOO-O136 (I-B), 4'-deoxy-4'-epi-trifluoroacetamido-daunorubicin], in the data set on HeLa cells (setting [1]), the activity at 0.1 µg/mL is 211%, the activity at 0.4 µg/mL stood at 21% and the activity at 1.6 µg/mL worked out at 0%. For the same compound, the IC50 in the data set with HeLa cells (Homo sapiens, HeLa, 24 h) is 0.18 µg/mL (≈ 0.289 µM). In the data set with HeLa cells, the “cytotoxicity on HeLa cells cloning efficiency, in words” value is listed as “less cytotxic than daunorubicin”. Besides, in the data set on P388 ascitic leukemia (setting [2]), the T/C % amounted to 145% and the “Toxicity Deaths” value is listed as 0/10. For the same compound, in the data set with P388 ascitic leukemia (setting [3]), the T/C % came to 154% and the “Toxicity Deaths” value is listed as 0/10. Further, in the data set on P388 ascitic leukemia (setting [4]), the T/C % was determined as 163% and the “Toxicity Deaths” value is listed as 2/10. Besides, in the data set with P388 ascitic leukemia (compared with daunorubicin), the “activity against P388 leukemia, in words” value is “much more active daunorubicin”.
With `COc1cccc2c1C(=O)c1c(O)c3c(c(O)c1C2=O)C[C@@](O)(C(C)=O)C[C@@H]3O[C@H]1C[C@H](N)[C@H](N)[C@H](C)O1` [XOO-O132 (I-A), 4'-amino-4'-deoxy-daunorubicin], in the data set on HeLa cells (setting [1]), the activity at 0.0062 µg/mL turned out to be 98%, the activity at 0.025 µg/mL was determined as 70% and the activity at 0.1 µg/mL is 0%. Further, the IC50 with HeLa cells (Homo sapiens, HeLa, 24 h) came out at 0.035 µg/mL (≈ 0.0665 µM). Further, in the data set on HeLa cells, the “cytotoxicity on HeLa cells cloning efficiency, in words” value was “less cytotxic than daunorubicin”. In the data set on P388 ascitic leukemia (setting [5]), the T/C % is listed as 181% and the “Toxicity Deaths” value was 0/10. In addition, in the data set on P388 ascitic leukemia (setting [6]), the T/C % is reported as 190% and the “Toxicity Deaths” value was 0/10. Also, in the data set on P388 ascitic leukemia (setting [7]), the T/C % is on record as 222% and the “Toxicity Deaths” value is 0/10. In addition, the “activity at the maximal dose tested, in words” value with P388 ascitic leukemia (P388 leukemia in mice, 13.5 mg/kg) was “highly active”. For the same compound, in the data set on P388 ascitic leukemia (P388 leukemia in mice, compared with daunorubicin), the “toxicity, in words” value was “less toxic than daunorubicin”. Further, the “activity against P388 leukemia, in words” value with P388 ascitic leukemia (compared with daunorubicin) was “much more active daunorubicin”.
Turning to `COc1cccc2c1C(=O)c1c(O)c3c(c(O)c1C2=O)C[C@@](O)(C(C)=O)C[C@@H]3O[C@H]1C[C@H](N)[C@H](O)[C@H](C)O1` [Daunorubicin, daunorubicin, reference compound], the activity at 0.0031 µg/mL with HeLa cells (Homo sapiens, HeLa, dose 3.1 ng/ml, treatment for 24 hours, data of 2 experiments, read-out: % of controls (HeLa cells cloning efficiency)) lay within 88 to 98%. Besides, in the data set with HeLa cells (Homo sapiens, HeLa, dose 6.2 ng/ml, treatment for 24 hours (daunorubicin: data of 2 experiments), read-out: % of controls (HeLa cells cloning efficiency)), the activity at 0.0062 µg/mL was 73 to 87%. In the data set with HeLa cells (Homo sapiens, HeLa, treatment for 24 hours (daunorubicin: data of 2 experiments)), the IC50 is 0.012 µg/mL (≈ 0.0227 µM). The values for the T/C % in the data set with P388 ascitic leukemia (setting [8]), in the data set with P388 ascitic leukemia (setting [9]) and with P388 ascitic leukemia (setting [10]) were 181%, 140% and 118%, respectively. In addition, the figures for the “Toxicity Deaths” value with P388 ascitic leukemia (setting [8]), in the data set on P388 ascitic leukemia (setting [9]) and in the data set on P388 ascitic leukemia (setting [10]) were 0/10, 9/10 and 10/10, respectively.
